Experimental data reported in publication PMC4841536, “Characterization of the Anti-HCV Activities of the New Cyclophilin Inhibitor STG-175” (PLoS ONE, 2016).

Assay: alamarBlue cytotoxicity (CC50), GT3a replicon cell line
Settings: human
Description: The anti-HCV activity of STG-175 was conducted using a panel of luciferase reporter replicon cell lines including GT1a, GT1b, GT2a, GT3a and GT4a as we described previously. The GT1a subgenomic renilla luciferase reporter replicon H77 RLucP (7) was supplied by Dr. Delaney. The GT1b subgenomic firefly luciferase reporter replicon pFK-I389/NS3-3’ [29] was supplied by Dr. Bartenschlager. The GT1B subgenomic NS3, NS5A and NS5B mutants were created via homologous recombination using the In-Fusion HD Cloning kit (Clontech) as we described previously. The GT2a genomic luciferase reporter replicon Luc-Neo-JFH-1 was generated as previously. The plasmid pFK-Luc-JFH1 was supplied from Drs. […] The CellTiter-Fluor™ Cell Viability Assay is a non-lytic fluorescence assay, which measures the number of live cells. […] Luciferase activity was determined using the Luciferase Assay System (Promega) in a Berthold luminometer. […] Viable cells continuously convert resazurin to resorufin, increasing the overall fluorescence and color of the media surrounding cells.
Fig 2 Anti-HCV activities of STG-175 among GTs. […] Luciferase activity was determined using the Luciferase Assay System in a Berthold luminometer. […] Data are expressed as mean of relative light units and calculated EC50s are presented. […]

Work on `CC=CCC(C)C(O)C1C(=O)NC(CC)C(=O)N(C)C(CSCCCCO)C(=O)N(C)C(CC(C)(C)O)C(=O)NC(C(C)C)C(=O)N(C)C(CC(C)C)C(=O)NC(C)C(=O)NC(C)C(=O)N(C)C(CC(C)C)C(=O)N(C)C(CC(C)C)C(=O)N(C)C(C(C)C)C(=O)N1C` (stereo not shown) [STG-175] yielded a CC50 at 72 h of over 10 µM.
